Laboratory results from patent US8658791B2, “2-substituted-6-amino-5-alkyl, alkenyl or alkynyl-4-pyrimidinecarboxylic acids and 6-substituted-4-amino-3-alkyl, alkenyl or alkynyl picolinic acids and their use as herbicides” (Dow AgroSciences, LLC, priority 2007, dated 2014).

Legend:
[1] = system: barnyardgrass (Echinochloa crus-galli); experiment: General postemergence herbicidal activity, ECHCG; format: in vivo; settings: Echinochloa crus-galli, post-emergence, 336 h, postemergence spray, visual score after 14 days, 0 = no injury, 100 = complete kill, read-out: Post-emergent Weed Control ECHCG; for pest or weed control at 280 g/ha: 280 g ai/ha; for pest or weed control at 140 g/ha: 140 g ai/ha; for pest or weed control at 70 g/ha: 70 g ai/ha
Procedure, shortened: (§1)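 Test species were grown 7-21 days in potting mix under greenhouse conditions, then treated postemergence by track sprayer delivering 187 L/ha. Rates comprised the high rate and twofold dilutions down to 1/16X. After 14 days with sub-irrigation, damage is scored from 0 (no injury) to 100 (complete kill).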

[2] = system: lambsquarter (Chenopodium album); experiment: General postemergence herbicidal activity, CHEAL; format: in vivo; settings: Chenopodium album, post-emergence, 336 h, postemergence spray, visual score after 14 days, 0 = no injury, 100 = complete kill, read-out: Post-emergent Weed Control CHEAL; for pest or weed control at 280 g/ha: 280 g ai/ha; for pest or weed control at 140 g/ha: 140 g ai/ha; for pest or weed control at 70 g/ha: 70 g ai/ha
Procedure, shortened: as §1

[3] = system: lambsquarter (Chenopodium album); experiment: General preemergence herbicidal activity, CHEAL; format: in vivo; settings: applied to soil surface, visual score after 20-22 days, 0 = no injury, 100 = complete kill or no emergence, read-out: Pre-emergent Weed Control CHEAL; for pest or weed control at 140 g/ha: 140 g ai/ha
Text: (§2) Seeds of the desired test plant species were planted in a soil matrix prepared by mixing a loam soil (43 percent silt, 19 percent clay, and 38 percent sand, with a pH of about 8.1 and an organic matter content of about 1.5 percent) and sand in a 70 to 30 ratio. The soil matrix was contained in plastic pots with a surface area of 127 square centimeters. When required to ensure good germination and healthy plants, a fungicide treatment and/or other chemical or physical treatment was applied. A weighed amount, determined by the highest rate to be tested, of each test compound was placed in a 25 mL glass vial and was dissolved in 6 mL of a 97:3 v/v (volume/volume) mixture of acetone and DMSO to obtain concentrated stock solutions. […] The stock solutions obtained were diluted with 18 mL of a 0.1% v/v aqueous solution of Tween® 20 surfactant to obtain spray solutions containing the highest application rate. Additional application rates were obtained by serial dilution of 12 mL of the high rate solution into a solution containing 3 mL of 97:3 v/v mixture of acetone and DMSO and 9 mL of the 0.1% v/v aqueous solution of Tween® 20 surfactant to obtain 1/2X, 1/4X, 1/8X and 1/16X rates of the high rate. Compound requirements are based upon a 12 mL application volume at a rate of 187 L/ha. Formulated compounds were applied to the soil surface with an overhead Mandel track sprayer equipped with a […] nozzles calibrated to deliver 187 L/ha over an application area of 0.503 square meters at a spray height of 18 inches (43 cm) above the soil surface. Control pots were sprayed in the same manner with the solvent blank. The treated pots and control pots were placed in a greenhouse maintained with an approximate 15 hour photoperiod and temperatures of about 23-29° C. during the day and 22-28° C. during the night. Nutrients and water were added on a regular basis and supplemental lighting was provided with overhead metal halide 1000-Watt lamps as necessary. The water was added by top-irrigation. After 20-22 days, the condition of the test plants that germinated and grew as compared with that of the untreated plants that emerged and grew was determined visually and scored on a scale of 0 to 100 percent where 0 corresponds to no injury and 100 corresponds to complete kill or no emergence.

[4] = system: wild poinsettia (Euphorbia heterophylla); experiment: General preemergence herbicidal activity, EPHHL; format: in vivo; settings: applied to soil surface, visual score after 20-22 days, 0 = no injury, 100 = complete kill or no emergence, read-out: Pre-emergent Weed Control EPHHL; for pest or weed control at 140 g/ha: 140 g ai/ha
Text: as §2

[5] = system: barnyardgrass (Echinochloa crus-galli); experiment: General preemergence herbicidal activity, ECHCG; format: in vivo; settings: applied to soil surface, visual score after 20-22 days, 0 = no injury, 100 = complete kill or no emergence, read-out: Pre-emergent Weed Control ECHCG; for pest or weed control at 140 g/ha: 140 g ai/ha
Text: as §2

[6] = system: velvetleaf (Abutilon theophrasti); experiment: General postemergence herbicidal activity, ABUTH; format: in vivo; settings: Abutilon theophrasti, post-emergence, 336 h, postemergence spray, visual score after 14 days, 0 = no injury, 100 = complete kill, read-out: Post-emergent Weed Control ABUTH; for pest or weed control at 280 g/ha: 280 g ai/ha; for pest or weed control at 140 g/ha: 140 g ai/ha; for pest or weed control at 70 g/ha: 70 g ai/ha
Procedure, shortened: as §1

[7] = system: rice (Oryza sativa); experiment: General preemergence herbicidal activity, ORYSA; format: in vivo; settings: applied to soil surface, visual score after 20-22 days, 0 = no injury, 100 = complete kill or no emergence, read-out: Pre-emergent Weed Control ORYSA; for plant injury at 140 g/ha: 140 g ai/ha
Text: as §2

[8] = system: rice (Oryza sativa); experiment: General postemergence herbicidal activity, ORYSA; format: in vivo; settings: Oryza sativa, post-emergence, 336 h, postemergence spray, visual score after 14 days, 0 = no injury, 100 = complete kill, read-out: Post-emergent Weed Control ORYSA; for plant injury at 280 g/ha: 280 g ai/ha; for plant injury at 140 g/ha: 140 g ai/ha; for plant injury at 70 g/ha: 70 g ai/ha
Procedure, shortened: as §1

[9] = system: velvetleaf (Abutilon theophrasti); experiment: General preemergence herbicidal activity, ABUTH; format: in vivo; settings: applied to soil surface, visual score after 20-22 days, 0 = no injury, 100 = complete kill or no emergence, read-out: Pre-emergent Weed Control ABUTH; for pest or weed control at 140 g/ha: 140 g ai/ha
Text: as §2

[10] = system: wild poinsettia (Euphorbia heterophylla); experiment: General postemergence herbicidal activity, EPHHL; format: in vivo; settings: Euphorbia heterophylla, post-emergence, 336 h, postemergence spray, visual score after 14 days, 0 = no injury, 100 = complete kill, read-out: Post-emergent Weed Control EPHHL; for pest or weed control at 280 g/ha: 280 g ai/ha; for pest or weed control at 140 g/ha: 140 g ai/ha; for pest or weed control at 70 g/ha: 70 g ai/ha
Procedure, shortened: as §1

| Structure (SMILES) | melting point [°C] | pest or weed control at 140 g/ha [3] [%] | pest or weed control at 140 g/ha [4] [%] | pest or weed control at 140 g/ha [5] [%] | plant injury at 140 g/ha [7] [%] | pest or weed control at 140 g/ha [9] [%] | pest or weed control at 140 g/ha [1] [%] | pest or weed control at 140 g/ha [2] [%] | pest or weed control at 140 g/ha [6] [%] | plant injury at 140 g/ha [8] [%] | pest or weed control at 140 g/ha [10] [%] | other results |
| --- | --- | --- | --- | --- | --- | --- | --- | --- | --- | --- | --- | --- |
| COC(=O)c1nc(-c2ccc(Cl)c(OC)c2F)nc(N)c1C [Compound 2, 6-Amino-2-(4-chloro-2-fluoro-3-methoxyphenyl)-5-methylpyrimidine-4-carboxylic acid methyl ester] | 168 to 170 | 80 | 95 | 0 | 15 | 40 | – | – | – | – | – | pest or weed control at 280 g/ha [1]: 95%; pest or weed control at 280 g/ha [2]: 100%; pest or weed control at 280 g/ha [6]: 95%; plant injury at 280 g/ha [8]: 0%; pest or weed control at 280 g/ha [10]: 100% |
| C=Cc1c(N)nc(C2CC2)nc1C(=O)OCC [Compound 4, 6-Amino-2-cyclopropyl-5-vinylpyrimidine-4-carboxylic acid ethyl ester] | 155 to 157 | – | – | – | – | – | 0 | 100 | 100 | 0 | 100 | pest or weed control at 280 g/ha ([3]; 280 g ai/ha): 100%; pest or weed control at 280 g/ha ([4]; 280 g ai/ha): 100%; pest or weed control at 280 g/ha ([5]; 280 g ai/ha): 50%; plant injury at 280 g/ha ([7]; 280 g ai/ha): 0%; pest or weed control at 280 g/ha ([9]; 280 g ai/ha): 90% |
| C=Cc1c(N)nc(-c2ccc(Cl)cc2F)nc1C(=O)OC [Compound 5, 6-Amino-2-(4-chloro-2-fluorophenyl)-5-vinylpyrimidine-4-carboxylic acid methyl ester] | 137 to 139 | 95 | 90 | 0 | 10 | 100 | 80 | 100 | 100 | 5 | 100 | – |
| C=Cc1c(N)nc(-c2ccc(Cl)c(C(C)F)c2F)nc1C(=O)OC (stereo not drawn) [Compound 14, 6-amino-2-(4-chloro-2-fluoro-3-(1-fluoroethyl)phenyl)-5-vinylpyrimidine-4-carboxylic acid methyl ester] | 144 to 147 | 100 | 100 | 95 | 95 | 100 | – | – | – | – | – | pest or weed control at 70 g/ha [1]: 100%; pest or weed control at 70 g/ha [2]: 100%; pest or weed control at 70 g/ha [6]: 100%; plant injury at 70 g/ha [8]: 10%; pest or weed control at 70 g/ha [10]: 100% |
| C=Cc1c(N)cc(-c2ccc(Cl)c(OC)c2F)nc1C(=O)OC [Compound 28, 4-Amino-6-(4-chloro-2-fluoro-3-methoxyphenyl)-3-vinylpyridine-2-carboxylic acid methyl ester] | 118 to 121 | 95 | 100 | 70 | 20 | 95 | – | – | – | – | – | pest or weed control at 280 g/ha [1]: 75%; pest or weed control at 280 g/ha [2]: 75%; pest or weed control at 280 g/ha [6]: 85%; plant injury at 280 g/ha [8]: 0%; pest or weed control at 280 g/ha [10]: 90% |
| C=Cc1c(N)nc(-c2ccc(Cl)cc2F)nc1C(=O)O [Compound 42, 6-Amino-2-(4-chloro-2-fluorophenyl)-5-vinylpyrimidine-4-carboxylic acid] | 167 to 169 | 100 | 100 | 30 | 10 | 100 | – | – | – | – | – | – |
| C/C=C\c1c(N)nc(-c2ccc(Cl)c(OC)c2F)nc1C(=O)O [Compound 55, 6-Amino-2-(4-chloro-2-fluoro-3-methoxyphenyl)-5-((Z)-propenyl)pyrimidine-4-carboxylic acid] | – | 100 | 100 | 60 | 30 | 100 | – | – | – | – | – | pest or weed control at 70 g/ha [1]: 100%; pest or weed control at 70 g/ha [2]: 100%; pest or weed control at 70 g/ha [6]: 100%; plant injury at 70 g/ha [8]: 15%; pest or weed control at 70 g/ha [10]: 100% |
| C=Cc1c(N)cc(-c2ccc(Cl)c(OC)c2F)nc1C(=O)O [Compound 59, 4-Amino-6-(4-chloro-2-fluoro-3-methoxyphenyl)-3-vinylpyridine-2-carboxylic acid] | – | 100 | 100 | 100 | 0 | 100 | 100 | 100 | 100 | 0 | 100 | – |
